# Results taken from patent publication US6169181A, “Compounds useful to treat retroviral infections” (Pharmacia & Upjohn Company, priority 1998, dated 2001).
# Values joined by “and” are separate entries in the source; they are usually repeats but may differ in a detail not shown here. Equal values may be shown once. Read-outs that look alike come from different tables or passages of the source.
# Columns and labels:
# HIV-1 protease [1] = target: T1, HIV-1 protease (Human immunodeficiency virus type 1 group M subtype B, UniProt P04585); experiment: biochemical
# How it was run: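 Biotinylated, FITC-labelled peptide substrate cleaved in 0.1 M sodium acetate pH 5.5, 1.0 M NaCl, 0.05% NP-40, room temperature. Filtered labelled product read by fluorescence; nonlinear least-squares fit.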
# HIV-1 protease [2] = target: T1, HIV-1 protease; experiment: biochemical; remark: listed apart in the source
# How it was run: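 Percent inhibition came from fluorescence of FITC-tagged cleavage product, separated by filtration from uncleaved substrate captured on streptavidin-coated beads. The enzyme (10 μl of 0.1 μM) and compound acted on a biotin/FITC dual-labelled peptide for one hour at room temperature in the dark. The reaction ran in 0.1 M sodium acetate, pH 5.5, with 1.0 M NaCl and 0.05% NP-40.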
# [3] = Table I, read-out: HIV Protease FITC Assay Ki
# [4] = Table I, Dose 0.123 μM, read-out: Protease % Inhib
# [5] = Table I, Dose 0.370 μM, read-out: Protease % Inhib
# [6] = Table I, Dose 1.100 μM, read-out: Protease % Inhib
# [7] = Table I, Dose 3.300 μM, read-out: Protease % Inhib
# [8] = Table I, Dose 10.000 μM, read-out: Protease % Inhib
# [9] = Table I, Dose 30.000 μM, read-out: Protease % Inhib
# [10] = Table II, enzyme HIV-1, read-out: FITC KI
# [11] = Table II, enzyme HIV-1, DOSE 0.123 (unit not given)
# [12] = Table II, enzyme HIV-1, DOSE 0.370 (unit not given)
# [13] = Table II, enzyme HIV-1, DOSE 1.100 (unit not given)
# [14] = Table II, enzyme HIV-1, DOSE 3.300 (unit not given)
# [15] = Table II, enzyme HIV-1, DOSE 10.000 (unit not given)
# [16] = Table II, enzyme HIV-1, DOSE 30.000 (unit not given)
# [17] = read-out: HIV Protease FITC Assay Ki
Compound,Ki (HIV-1 protease [1]; [3]),inhibition at 0.123 µM (HIV-1 protease [2]; [4]),inhibition at 0.37 µM (HIV-1 protease [2]; [5]),inhibition at 1.1 µM (HIV-1 protease [2]; [6]),inhibition at 3.3 µM (HIV-1 protease [2]; [7]),inhibition at 10 µM (HIV-1 protease [2]; [8]),inhibition at 30 µM (HIV-1 protease [2]; [9]),other results
"CCCC1(CCC)CC(O)=C(C(CC)c2cccc(NS(=O)(=O)c3cn(C)cn3)c2)C(=O)O1 (stereo not shown) [Example 44, N-[3-[1-(4-hydroxy-2-oxo-6,6-dipropyl-5,6-dihydro-2H-pyran-3-yl)-propyl]-phenyi]-1-methyl-1H-imidazolesulfonamide]",1.8 nM,98.4%,114%,120%,113%,102%,80%,–
"CC(C)(C)C(C1=C(O)CC(CCc2ccccc2)(CCc2ccccc2)OC1=O)c1cccc(NS(=O)(=O)c2ccc(C#N)cn2)c1 (stereo not shown) [Example 344, N-[3-{1-(4-Hydroxy-5,6-dihydro-2-oxo-6,6-bis(2-phenylethyl)-2H-pyran-3-yl)-2,2-dimethylpropyl}phenyl]-5-cyanopyridine-2-sulfonamide]",–,–,–,–,–,–,–,Ki (HIV-1 protease [1]; [10]): 5.9 nM; PROTEASE % INHIB. (HIV-1 protease [2]; [11]): 47.37%; PROTEASE % INHIB. (HIV-1 protease [2]; [12]): 72.84%; PROTEASE % INHIB. (HIV-1 protease [2]; [13]): 81.17%; PROTEASE % INHIB. (HIV-1 protease [2]; [14]): 83.08%; PROTEASE % INHIB. (HIV-1 protease [2]; [15]): 68.47%; PROTEASE % INHIB. (HIV-1 protease [2]; [16]): 46.24%
"CCCC1(CCC)CC(O)=C(C(CC)c2cccc(NS(=O)(=O)c3cn(C)cn3)c2)C(=O)O1 (single isomer, unassigned) [Example 55, (S or R)-N-[3-[1-(4-hydroxy-2-oxo-6,6-dipropyl-5,6-dihydro-2H-pyran-3-yl)-propyl]-phenyl]-1-methyl-1H-imidazole-4-sulfonamide]",1.7 nM,–,–,–,–,–,–,"PROTEASE % INHIB. (HIV-1 protease [2]; Table I, Dose 0.123 μM): < 10%; PROTEASE % INHIB. (HIV-1 protease [2]; Table I, Dose 0.370 μM): 18.77%; PROTEASE % INHIB. (HIV-1 protease [2]; Table I, Dose 1.100 μM): 58.27%; PROTEASE % INHIB. (HIV-1 protease [2]; Table I, Dose 3.300 μM): 86.98%; PROTEASE % INHIB. (HIV-1 protease [2]; Table I, Dose 10.000 μM): 98.33%; PROTEASE % INHIB. (HIV-1 protease [2]; Table I, Dose 30.000 μM): 85.88%"
"O=c1oc(C(CC2CC2)CC2CC2)cc(O)c1C(c1cccc(NS(=O)(=O)c2ncc[nH]2)c1)C1CC1 (stereo not shown) [Example 102, N-(3-{Cyclopropyl-[6-(2-cyclopropyl-1-cyclopropylmethyl-ethyl)-4-hydroxy-2-oxo-2H-pyran-3-yl]-methyl}-phenyl)-1H-imidazole-2-sulfonamide]",0.7 nM,87.1%,92.7%,102%,110%,117%,108%,–
"CC[C@H](Cc1ccccc1)c1cc(O)c(C(c2cccc(NS(=O)(=O)c3ccc(C#N)cc3)c2)C2CC2)c(=O)o1 (single isomer, unassigned) [Example 148, N-(3-(R or S)-{Cyclopropyl-[6-(1-(R)-ethylphenethyl)-4-hydroxy-2-oxo-2H-pyran-3-yl]-methyl}-phenyl)-4-cyanobenzenesulfonamide]",4.77 nM and 18.1 nM,81.3%,91.7%,95.6%,90%,99.2%,93.5%,–
"CCCC1(CCC)CC(O)=C(C(CC)c2cccc(NS(=O)(=O)c3cccc4cccnc34)c2)C(=O)O1 (stereo not shown) [Example 43, N-[3-[1-(4-hydroxy-2-oxo-6,6-dipropyl-5,6-dihydro-2H-pyran-3-yl)-propyl]-phenyl]-8-quinolinesulfonamide]",3.65 nM,85.6%,99%,95.7%,96.7%,102%,85.6%,–
"CCCC1(CCC)CC(O)=C(C(CC)c2cccc(NS(=O)(=O)c3ccc(F)cc3)c2)C(=O)O1 (stereo not shown) [Example 45, 4-Fluoro-N-[3-[1-(4-hydroxy-2-oxo-6,6-dipropyl-5,6-dihydro-2H-pyran-3-yl)-propyl]-phenyl]-benzenesulfonamide]",4.78 nM,82.2%,94.4%,101%,103%,89.8%,67.5%,–
"CCC(C1=C(O)CC(CC(C)C)(CC(C)C)OC1=O)c1cccc(NS(=O)(=O)c2cn(C)cn2)c1 (stereo not shown) [Example 47, N-[3-[1-(4-hydroxy-6,6-diisobutyl-2-oxo-5,6-dihydro-2H-pyran-3-yl)-propyl]-phenyl]-1-methyl-1H-imidazole-4-sulfonamide]",3 nM and 2.98 nM,66.3%,–,94.7%,101%,98.7%,84.5%,"inhibition at 0.87 µM (HIV-1 protease [2]; Table I, Dose 0.870 μM, read-out: Protease % Inhib): 86.8%"
"O=c1oc(C(CC2CC2)CC2CC2)cc(O)c1C(c1cccc(NS(=O)(=O)c2ccc(F)cc2)c1)C1CC1 (stereo not shown) [Example 94, N-(3-{Cyclopropyl-[6-(2-cyclopropyl-1-cyclopropylmethyl-ethyl)-4-hydroxy-2-oxo-2H-pyran-3-yl]-methyl}-phenyl)-4-fluoro-benzenesulfonamide]",–,–,–,–,–,–,–,Ki (HIV-1 protease [1]; [17]): 16.4 nM; inhibition at 0.123 µM (HIV-1 protease [2]; read-out: Protease % Inhib): 75.8%; inhibition at 0.37 µM (HIV-1 protease [2]; read-out: Protease % Inhib): 107%; inhibition at 1.1 µM (HIV-1 protease [2]; read-out: Protease % Inhib): 107%; inhibition at 3.3 µM (HIV-1 protease [2]; read-out: Protease % Inhib): 105%; inhibition at 10 µM (HIV-1 protease [2]; read-out: Protease % Inhib): 109%; inhibition at 30 µM (HIV-1 protease [2]; read-out: Protease % Inhib): 111%
"CCC(C1=C(O)CC(CCc2ccc(F)cc2)(CCc2ccc(F)cc2)OC1=O)c1cccc(NS(=O)(=O)c2ccc(C(N)=O)cn2)c1 (stereo not shown) [Example 333, N-[3-{1-(4-Hydroxy-5,6-dihydro-2-oxo-6,6-bis(2-(4-fluorophenyl)ethyl)-2H-pyran-3-yl)propyl}phenyl]-5-carbamoylpyridine-2-sulfonamide]",–,–,–,–,–,–,–,Ki (HIV-1 protease [1]; [10]): 7.7 nM; PROTEASE % INHIB. (HIV-1 protease [2]; [11]): 66.73%; PROTEASE % INHIB. (HIV-1 protease [2]; [12]): 85.07%; PROTEASE % INHIB. (HIV-1 protease [2]; [13]): 85.12%; PROTEASE % INHIB. (HIV-1 protease [2]; [14]): 93.69%; PROTEASE % INHIB. (HIV-1 protease [2]; [15]): 89.38%; PROTEASE % INHIB. (HIV-1 protease [2]; [16]): 77.91%
"CCCC1CCCCCc2c1oc(=O)c(C(c1cccc(NS(=O)(=O)c3ccccc3)c1)C1CC1)c2O (stereo not shown) [Example 1, N-[3-[cyclopropyl(5,6,7,8,9,10-hexahydro-4-hydroxy-2-oxo-10-propyl-2H-cycloocta[b]pyran-3-yl)methyl]phenyl]benzenesulfonamide]",15 nM,75.4%,87.3%,97.1%,96.8%,99.7%,97.4%,–
"CCCC1(CCc2ccccc2)CC(O)=C(C(c2cccc(NS(=O)(=O)c3ccc(C#N)cn3)c2)C(C)(C)C)C(=O)O1 (stereo not shown) [Example 251, 5-Cyano-N-[3-(1-[5,6-dihydro-4-hydoxy-2-oxo-6-(2-phenethyl)-6-propyl-2H-pyran-3-yl]-2,2-dimethylpropyl)phenyl]-2-pyridinesulfonamide]",–,–,–,–,–,–,–,Ki (HIV-1 protease [1]; [17]): 1.9 nM; inhibition at 0.123 µM (HIV-1 protease [2]; read-out: Protease % Inhib): 70.8%; inhibition at 0.37 µM (HIV-1 protease [2]; read-out: Protease % Inhib): 90.6%; inhibition at 1.1 µM (HIV-1 protease [2]; read-out: Protease % Inhib): 97.7%; inhibition at 3.3 µM (HIV-1 protease [2]; read-out: Protease % Inhib): 94.5%; inhibition at 10 µM (HIV-1 protease [2]; read-out: Protease % Inhib): 94.2%; inhibition at 30 µM (HIV-1 protease [2]; read-out: Protease % Inhib): 93.2%
"CCCC1(CCc2ccccc2)CC(O)=C(C(c2cccc(NS(=O)(=O)c3cccc4cccnc34)c2)C2CC2)C(=O)O1 (stereo not shown) [Example 60, N-[3-[1-(4-Hydroxy-2-oxo-6-phenethyl-6-propyl-5,6-dihydro-2H-pyran-3-yl)-cyclopropylmethyl]-phenyl]-8-quinolinesulfonamide]",0.95 nM,73%,94.3%,101%,101%,106%,107%,–
